Reference: publication PMC8103899, “Allyl Isothiocyanate: A TAS2R38 Receptor-Dependent Immune Modulator at the Interface Between Personalized Medicine and Nutrition” (Frontiers in Immunology, 2021)
pIC50: −log10 of the molar value.

Columns and labels:
[1] = tested on: sinonasal epithelial cells; set-up: method as in PMID 24531552; details: cited from earlier work
[2] = tested on: LPS stimulated leukocytes; details: cited from earlier work
[3] = molecular target: PLC-β2 (Homo sapiens, UniProt Q00722); test: Calcium flux in PAV/PAV monocytes after PLC-β2 antagonist pre-treatment before AITC; details: cell pretreatment with U73122 for 30 min
Chain of PLC-β2 (Q00722 whole entry): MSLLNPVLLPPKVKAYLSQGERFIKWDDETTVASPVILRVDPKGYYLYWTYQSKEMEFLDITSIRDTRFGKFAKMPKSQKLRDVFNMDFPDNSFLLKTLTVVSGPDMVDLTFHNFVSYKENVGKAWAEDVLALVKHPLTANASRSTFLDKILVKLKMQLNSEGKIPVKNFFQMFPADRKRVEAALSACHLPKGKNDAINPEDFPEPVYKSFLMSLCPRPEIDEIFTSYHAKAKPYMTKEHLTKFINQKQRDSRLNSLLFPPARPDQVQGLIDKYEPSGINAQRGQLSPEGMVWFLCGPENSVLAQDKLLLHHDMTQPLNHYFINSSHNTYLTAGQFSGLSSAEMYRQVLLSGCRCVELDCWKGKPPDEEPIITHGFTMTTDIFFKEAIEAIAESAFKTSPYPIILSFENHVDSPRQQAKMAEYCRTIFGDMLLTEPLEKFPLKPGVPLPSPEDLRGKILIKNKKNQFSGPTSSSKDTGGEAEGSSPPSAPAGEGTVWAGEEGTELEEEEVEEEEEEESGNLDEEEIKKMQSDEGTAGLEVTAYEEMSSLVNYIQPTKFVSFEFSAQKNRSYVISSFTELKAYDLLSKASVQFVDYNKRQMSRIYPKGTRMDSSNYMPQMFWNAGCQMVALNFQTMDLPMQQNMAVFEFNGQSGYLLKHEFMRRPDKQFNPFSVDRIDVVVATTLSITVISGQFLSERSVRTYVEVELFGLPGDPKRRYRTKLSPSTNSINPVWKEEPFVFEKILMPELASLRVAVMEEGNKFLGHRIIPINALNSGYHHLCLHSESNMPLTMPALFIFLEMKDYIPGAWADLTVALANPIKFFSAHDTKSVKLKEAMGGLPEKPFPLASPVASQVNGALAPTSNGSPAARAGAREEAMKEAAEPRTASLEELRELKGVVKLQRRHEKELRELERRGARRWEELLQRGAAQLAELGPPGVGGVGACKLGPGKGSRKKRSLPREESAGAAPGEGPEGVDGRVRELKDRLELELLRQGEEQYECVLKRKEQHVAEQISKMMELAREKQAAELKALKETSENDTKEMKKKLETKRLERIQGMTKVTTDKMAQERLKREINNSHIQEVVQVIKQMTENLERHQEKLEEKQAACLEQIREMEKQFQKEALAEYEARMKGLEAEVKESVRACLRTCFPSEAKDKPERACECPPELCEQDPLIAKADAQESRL

[4] = Human food intervention: AITC metabolite plasma levels after mustard intake (LC-ESI-MS/MS); format: in vivo; details: for blood plasma level: human volunteers; for detection in plasma: human volunteers after mustard preparation (data not shown)
Method: AITC metabolite quantification was carried out in blood plasma samples derived from an intervention study at the University Medical Center in Freiburg, Germany. Samples were from 4 healthy young adults (3 females, 1 male, aged between 30-40 years) having a normal BMI, and were non-smokers. Each subject consumed one time 10 g of a commercially available mustard preparation ([…] Munich, Germany) containing 24.74 ± 1.76 μmol/g fresh weight preformed AITC on an empty stomach with optional consumption of white bread. The intervention was preceded by a 48 h wash-out phase consisting of a glucosinolate/ITC-free diet. After 30 min and optionally 60 min, blood was collected by venipuncture in serum tubes and centrifuged at 2000g for 10 min, 4°C to obtain serum. Subsequently, TFA was added and the samples frozen at -80°C. The preparation of serum samples (300 μL serum and 100 μL TFA) was conducted as described by Kühn et al. ([37]). The frozen samples were thawed, vortexed (1 min) and centrifuged (4 °C, 10 min, 20.854 x g). The supernatant was transferred to SPE cartridges. Prior to transferring, SPE cartridges were conditioned with acetonitrile (ACN, 3 mL) and equilibrated with water (3 mL). After sample application, the cartridges were washed with formic acid (FA, 3 mL, 0.1% in water) and the metabolites were eluted with FA (3 mL, 0.1% in ACN:water, 90:10, v/v). […] The samples were re-dissolved in 100 μL FA (0.1% in ACN:water, 90:10, v/v). Sample aliquots of 5 μL were injected into the LC-ESI-MS/MS system. LC-ESI-MS/MS analysis was performed on an API4000 triple quadrupole mass spectrometer (AB Sciex Germany GmbH, Darmstadt, Germany) equipped with an Agilent 1200 LC system (Agilent Technologies Deutschland GmbH & Co. KG, Waldbronn, Germany). For data acquisition and processing the software Analyst 1.6.1 (AB Sciex Germany GmbH, Darmstadt, Germany) was used. […] AITC-CysGly; AITC-Cys; AITC-NAC) was conducted according to Platz et al. ([38]) with minor modifications. The separation was performed on a Kinetex C18 column (Phenomenex, 5 μm, 100 Å, 150 x 2.1 mm). The autosampler operated at 4°C and the set temperature for the oven was 20°C. A constant flow of 300 μL/min was used for the mobile phase which consisted of 0.1% FA in water (A) and 0.1% FA in ACN (B). […] In order to equilibrate the column, A was increased to 90% and held for 5 min. The relevant MS parameters include an entrance potential of -10 V, a desolvation gas temperature of 450°C, ion spray potential of -4.5 kV, gas 1 and gas 2 at 46 psi and a curtain gas pressure at 10 psi.

[5] = tested on: TAS2R38-PAV; set-up: method as in PMID 28902853; details: transfected HEK293 cells (~0.9% DMSO solution), approximately; cited from earlier work
[6] = tested on: intracellular calcium release; set-up: method as in PMID 8393876; details: 1% DMSO; cited from earlier work
[7] = molecular target: T1, TAS2R38 receptor (Homo sapiens, UniProt P59533, A49P/I296V); test: Calcium flux assay in human PBMC (flow cytometry, Fluo-4 AM); details: human PAV/PAV monocytes
T1 sequence (P59533 1-333 A49P/I296V): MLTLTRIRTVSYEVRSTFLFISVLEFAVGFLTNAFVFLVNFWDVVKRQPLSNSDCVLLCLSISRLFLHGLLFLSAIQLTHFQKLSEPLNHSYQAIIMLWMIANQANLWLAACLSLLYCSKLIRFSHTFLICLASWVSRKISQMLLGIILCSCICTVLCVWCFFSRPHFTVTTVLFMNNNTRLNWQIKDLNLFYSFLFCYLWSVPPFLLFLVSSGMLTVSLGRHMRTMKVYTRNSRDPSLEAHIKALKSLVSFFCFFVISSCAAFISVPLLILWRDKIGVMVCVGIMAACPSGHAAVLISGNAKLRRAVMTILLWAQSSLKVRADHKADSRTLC

[8] = tested on: extracellular calcium influx in monocytes; test: Calcium flux in PAV/PAV monocytes after EDTA pre-treatment before AITC; details: 0.5 mM EDTA
[9] = tested on: TAS2R38-PAV receptor; set-up: method as in PMID 20022913; details: cited from earlier work
[10] = tested on: TAS2R38; set-up: method as in PMID 23041624; details: sinonasal cells, TAS2R38 genotype dependent; cited from earlier work
[11] = molecular target: TRPV1 (Homo sapiens, UniProt Q8NER1); test: Calcium flux in PAV/PAV monocytes after TRPV1 antagonist pre-treatment before AITC; format: cell-based
Chain of TRPV1 (Q8NER1 whole entry): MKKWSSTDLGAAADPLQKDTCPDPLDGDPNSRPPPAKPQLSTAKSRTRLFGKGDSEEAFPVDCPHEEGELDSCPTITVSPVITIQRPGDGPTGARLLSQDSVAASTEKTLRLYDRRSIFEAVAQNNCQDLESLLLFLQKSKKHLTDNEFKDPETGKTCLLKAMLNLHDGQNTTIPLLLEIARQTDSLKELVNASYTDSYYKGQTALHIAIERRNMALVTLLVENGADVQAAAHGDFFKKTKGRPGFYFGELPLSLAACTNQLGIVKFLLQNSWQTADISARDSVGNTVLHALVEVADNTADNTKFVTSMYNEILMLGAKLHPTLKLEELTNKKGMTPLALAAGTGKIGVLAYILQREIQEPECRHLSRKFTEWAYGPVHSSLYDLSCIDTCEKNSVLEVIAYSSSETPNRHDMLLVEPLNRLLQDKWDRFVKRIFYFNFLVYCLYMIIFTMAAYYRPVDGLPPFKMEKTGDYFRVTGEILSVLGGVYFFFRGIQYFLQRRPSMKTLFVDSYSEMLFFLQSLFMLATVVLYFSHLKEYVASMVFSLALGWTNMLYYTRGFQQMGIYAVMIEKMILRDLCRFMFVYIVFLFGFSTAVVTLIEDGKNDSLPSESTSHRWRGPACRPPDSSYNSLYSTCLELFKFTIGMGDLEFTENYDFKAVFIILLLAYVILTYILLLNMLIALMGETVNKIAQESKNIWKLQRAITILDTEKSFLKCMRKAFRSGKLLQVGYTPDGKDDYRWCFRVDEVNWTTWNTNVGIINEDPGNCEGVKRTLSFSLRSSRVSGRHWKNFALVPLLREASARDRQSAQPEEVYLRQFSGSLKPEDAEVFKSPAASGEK
Method: Baseline fluorescence was recorded for 60 sec.

[12] = tested on: TRPA1; set-up: method as in PMID 21763756; details: calcium assays; cited from earlier work

In the case of `CC[N+](CC)(CC(=O)Nc1c(C)cccc1C)Cc1ccccc1` [denatonium], the cytokine release [1] is listed as “marginal change” and the “multiple cytokine production, including TNF-α” value [2] is listed as “marked reduction”.

In the case of `COc1ccc2c(c1)CC[C@@H]1[C@@H]2CC[C@]2(C)[C@@H](NCCCCCCN3C(=O)C=CC3=O)CC[C@@H]12` [U73122], the “effect on AITC induced calcium release” value [3] was “almost completely block”.

`C=CCNC(=S)SC[C@H](NC(C)=O)C(=O)O` [AITC-NAC] gave a blood plasma level ([4]; 0.5 h after 10 g mustard preparation) of 0.8367 ± 0.0677 µM and a blood plasma level ([4]; 1 h after 10 g mustard preparation) of 1.001 ± 0.2283 µM.

In the case of `C[S+](C)[O-]` [DMSO, Dimethyl sulfoxide], the threshold concentration [5] is given as > 125 mM, the calcium release [6] is given as “significant calcium release” and the “effect on calcium release” value ([7]; 0.1% DMSO) is given as “no effect”. For the same compound, the “mean calcium increase compared to untreated cells” value ([7]; starting from 1.5% DMSO, not statistically significant) was 36%.

With `C=CCNC(=S)SC[C@H](NC(=O)CC[C@H](N)C(=O)O)C(=O)NCC(=O)O` [AITC-GSH] the detection in plasma [4] was “No other AITC metabolites (AITC-GSH or AITC-CG) could be detected”.

For `O=C(O)CN(CCN(CC(=O)O)CC(=O)O)CC(=O)O` [EDTA], the “effect on calcium influx triggered by AITC” value ([8]; 1 µM AITC) was “did not impact” and the “reduction in calcium flux” value ([8]; 100 µM AITC) was 67%.

In the case of `C[S@@+]([O-])CCCCN=C=S` [L-sulforaphane], the “activation of the TAS2R38-PAV receptor” value [9] is given as “did not”.

With `C=CCNC(=S)SC[C@H](N)C(=O)NCC(=O)O` [AITC-CG] the detection in plasma [4] was “No other AITC metabolites (AITC-GSH or AITC-CG) could be detected”.

For `S=C=NCCc1ccccc1` [phenylethyl ITC], the “activation of the TAS2R38-PAV receptor” value [9] is given as “activated”.

For `NC(=S)Nc1ccccc1` [PTC], the NO production [10] is given as “stimulated”.

For `Oc1cc2c(cc1O)CN(C(=S)NCCc1ccc(Cl)cc1)CCC2` [capsazepine], the “effect on AITC mediated calcium release” value ([11]; capsazepine pretreatment, 1 µM AITC) was “not effected” and the “effect on AITC mediated calcium release” value ([11]; pretreatment 10 µM capsazepine, stimulation with 100 µM AITC) was “reduction of AITC mediated calcium release”.

In the case of `C=CCC(=NOS(=O)(=O)O)S[C@@H]1O[C@H](CO)[C@@H](O)[C@H](O)[C@H]1O` (stereo in doubt) [sinigrin], the “activation of TAS2R38 taster variant among 25 TAS2Rs” value ([9]; HEK293T-Gα16gust44 cells transiently transfected) is listed as “selectively triggered the taster variant”.
